{"source": "paper PMC12325145", "about": "“Preclinical evaluation of [^68Ga]Ga-AAZTA-FAPI-46: a novel PET tracer for targeting fibroblast activation protein (FAP)” (EJNMMI Radiopharmacy and Chemistry, 2025)", "biological_target": "T1, fibroblast activation protein (FAP) (Mus musculus, UniProt P97321)", "T1 construct": "murine FAP stably expressed in HEK293 cells (pCMV6-Kan/Neo-mFAP, Origene MC206606)", "T1 sequence (P97321 1-761)": "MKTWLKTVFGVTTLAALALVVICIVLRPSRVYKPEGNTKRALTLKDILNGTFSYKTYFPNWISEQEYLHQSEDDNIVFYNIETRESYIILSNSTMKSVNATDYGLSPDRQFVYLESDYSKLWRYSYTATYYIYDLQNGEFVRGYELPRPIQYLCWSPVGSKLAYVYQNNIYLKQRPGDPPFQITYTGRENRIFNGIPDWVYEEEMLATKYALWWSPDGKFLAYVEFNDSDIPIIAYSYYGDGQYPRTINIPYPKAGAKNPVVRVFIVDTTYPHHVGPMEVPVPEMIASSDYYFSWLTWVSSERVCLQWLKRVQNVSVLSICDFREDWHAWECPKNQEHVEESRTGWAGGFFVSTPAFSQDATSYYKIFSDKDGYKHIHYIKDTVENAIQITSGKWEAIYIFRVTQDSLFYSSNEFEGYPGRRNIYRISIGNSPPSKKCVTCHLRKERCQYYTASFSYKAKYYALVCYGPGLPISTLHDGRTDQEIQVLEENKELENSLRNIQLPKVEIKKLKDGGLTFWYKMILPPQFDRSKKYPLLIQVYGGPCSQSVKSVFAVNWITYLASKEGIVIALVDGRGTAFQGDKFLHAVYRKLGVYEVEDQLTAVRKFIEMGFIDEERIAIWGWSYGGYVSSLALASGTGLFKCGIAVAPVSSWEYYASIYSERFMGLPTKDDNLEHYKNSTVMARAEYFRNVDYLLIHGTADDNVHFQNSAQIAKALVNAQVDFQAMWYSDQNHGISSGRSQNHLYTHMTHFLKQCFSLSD", "test": "radioligand competition with unlabelled tracer on HEK293T-FAP cells, […] °C, […] h", "format": "cell-based", "data": [{"smiles": "CN(CCCN1CCN(C(=O)CCCCC2(N(CC(=O)[O-])CC(=O)[O-])CN(CC(=O)[O-])CCN(CC(=O)[O-])C2)CC1)c1ccc2nccc(C(=O)NCC(=O)N3CC(F)(F)C[C@@H]3C#N)c2c1.[68Ga+3]", "note": "[[^68Ga]Ga-AAZTA-FAPI-46]", "values": [{"measurement": "IC50", "result": "4.61 ± 0.21", "unit": "nM"}]}]}
